Where two headings read alike, the source gives them in different places. Marks after values point to notes of the source that are not given here.
Columns and labels:
Kunming mice = assay: Latent period and persistent period of anesthesia in mice; format: in vivo; settings: intravenous injection
KM mice = assay: ED50 and LD50 test concerning anesthesia (sequential method) in mice; format: in vivo; settings: for Mouse ED50: anesthesia (loss of righting reflex); for Mouse ED50 / Mouse LD50: caudal vein injection
Description: (§1) Test samples for the experiment on rabbit were formulated to have corresponding concentrations based on the results from a preliminary test. […] Rats and mice were administered with samples having a fixed concentration of drugs, while the volume of administration altered according to actual situation. The volume of administration to rabbits was 1 mL/kg body weight.
(§2) ED50 and LD50 values concerning anesthesia were determined using a sequential method. Healthy KM mice (male), SD rats (male) and New Zealand White rabbits were used for test. […] For rabbits, the compounds were administered by injection at a constant rate via ear vein for 30 seconds. Before the test, a preliminary test was conducted to determine an approximate dosage (volume of administration) that leads to anesthetization (or death) of animals, which was set as the middle dosage in the formal test. […] The disappearance of righting reflex or death was used as indicators of pharmacological efficacy or toxicity, respectively. The formal test began with the administration of the middle dosage. If animals were anesthetized, a lower dosage was administered; if animals were not anesthetized, a higher dosage was administered, until the cycle was repeated for 3-4 times. LD50 and ED50 were calculated by a sequential method aot425 software. TI was calculated according to the following equation: TI=LD50/ED50.

[1] = formula F derivatives, rat plasma, 37° C.
Description: 0.1 ml samples were taken from each of the solutions, added respectively to 1 ml of blood plasma of rabbit (taken from New Zealand white rabbits, treated according to conventional methods, anticoagulated with heparin) or 1 ml of blood plasma of rat (taken from live SD rats, treated according to conventional methods, anticoagulated with heparin), homogeneously mixed, and placed in a thermostatic water bath at 37° C. for incubation with time being recorded. Samples were taken at different time points after the experiment began, and 2 ml of acetonitrile was immediately added. The samples were shaken and centrifuged for 5 min (15,000 rpm), and the supernatant was then taken for HPLC analysis.

SD rats = assay: ED50 and LD50 test concerning anesthesia (sequential method) in rats; format: in vivo; settings: for Rat ED50: anesthesia (loss of righting reflex); for Rat ED50 / Rat LD50: caudal vein injection
Description: as §1, §2

[2] = tested on: New Zealand White rabbits; assay: ED50 and LD50 test concerning anesthesia (sequential method) in rabbits; format: in vivo
Description: as §1, §2

[3] = formula F derivatives, rabbit plasma, 37° C.
[4] = tested on: human prostate cancer PC-3; settings: PC-3 xenograft, nude mice, 33.6 mg/kg, D0 IV, single dose; for Tumor inhibitory percent (%) D20: P(D20)=0.000 vs control; for Tumor volume (mm^3) (D0): D0 (baseline at grouping);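 on Tumor inhibitory percent (%) D20: human prostate cancer PC-3 cells implanted under the skin of nude mice to form the xenograft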;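 on Tumor volume (mm^3) (D0): human prostate cancer PC-3 cells implanted under the skin of nude mice to form the xenograft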
Description: Test of the inhibitory activity of the water soluble docetaxel derivatives on subcutaneously xenografted tumor of human prostate cancer PC-3 in nude mice: evaluating and comparing the inhibitory activity of the water soluble docetaxel derivatives and docetaxel on subcutaneously xenografted tumor of human prostate cancer PC-3 in nude mice.
Human prostate cancer PC-3 cells were subcutaneously inoculated into nude mice. After the tumor volume reached 100-150 mm^3, the animals were randomly divided into several groups, and administered with the water soluble docetaxel derivatives of the present invention and docetaxel, respectively once on the same day (D0). The tumor volume was measured 2-3 times per week, the animals were weighed and the data were recorded until day 20 (D20) after grouping.
(§3) The tumor volume (V) was calculated according to the equation: V=½×a×b^2, wherein a and b represent the length and the width, respectively.
(§4) T/C (%)=(T−T0)/(C−C0)×100, wherein T and C represent the tumor volume at the end of the experiment; and T0 and C0 represent the tumor volume at the beginning of the experiment.

[5] = In vitro dissociation of the water soluble taxane derivatives in blood plasma of rabbit; format: in vitro ADME, New Zealand white rabbits; settings: 37° C.
Description: The obtained water soluble taxane derivatives were formulated as 0.2 mg/ml aqueous solutions. […] After 5 min, 20 min and 60 min of incubation, 0.2 ml of solutions were respectively taken from each of the samples, and added to acetonitrile (0.4 ml) cooled to −20° C. for precipitation of protein.

[6] = In vitro dissociation of the water soluble taxane derivatives in blood plasma of rat; format: in vitro ADME, SD rats; settings: 37° C.
Description: The obtained water soluble taxane derivatives were formulated as 0.2 mg/ml aqueous solutions. […] After 2 min, 5 min and 10 min of incubation, 0.2 ml of solutions were respectively taken from each of the samples, and added to acetonitrile (0.4 ml) cooled to −20° C. for precipitation of protein.

[7] = tested on: human prostate cancer PC-3; settings: PC-3 xenograft, nude mice; 13 mg/kg, D0 IV, single dose; D20;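 on Tumor inhibitory percent (%) D20: human prostate cancer PC-3 cells implanted under the skin of nude mice to form the xenograft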;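 on Tumor volume (mm^3) (D0): human prostate cancer PC-3 cells implanted under the skin of nude mice to form the xenograft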
Description: Test of the inhibitory activity of the water soluble cabazitaxel derivatives on subcutaneously xenografted tumor of human prostate cancer PC-3 in nude mice: evaluating and comparing the inhibitory activity of the water soluble cabazitaxel derivatives and cabazitaxel on subcutaneously xenografted tumor of human prostate cancer PC-3 in nude mice.
Human prostate cancer PC-3 cells were subcutaneously inoculated into nude mice. After the tumor volume reached 100-150 mm^3, the animals were randomly divided into several groups, and administered with the water soluble cabazitaxel derivatives of the present invention and cabazitaxel, respectively once on the same day (D0). The tumor volume was measured 2-3 times per week, the animals were weighed and the data were recorded until day 20 (D20) after grouping.
as §3, §4

[8] = dosage 2 * ED50, 3 mg/ml solution
[9] = dosage 2 * ED50, 6 mg/ml solution
[10] = 3 mg/ml solution, confirmation test
[11] = 6 mg/ml solution, confirmation test

CC(C)c1cccc(C(C)C)c1OC(=O)C(F)CCC(=O)[O-].[Na+] (racemic) [Compound F1, propofol 4-carboxyl-2(R,S)-fluorovalerate sodium salt]
Latent Period (Kunming mice; [8]): 18.6 ± 0.7 s | Persistent period (Kunming mice; [8]): 349.7 ± 229.4 s | Latent Period (Kunming mice; [9]): 15.2 ± 1.4 s | Persistent period (Kunming mice; [9]): 523 ± 248 s | TI Mouse (KM mice; [10]): 2.8 | TI Mouse (KM mice; 3 mg/ml solution, first test): 3* | TI Mouse (KM mice; [11]): 3.3 | TI Mouse (KM mice; 6 mg/ml solution, first test): 2.7* | Mouse ED50 (KM mice; [10]): 18.6 mg/kg | Mouse ED50 (KM mice; 3 mg/ml solution, first test): 20.8 mg/kg | Mouse ED50 (KM mice; [11]): 16.7 mg/kg | Mouse ED50 (KM mice; 6 mg/ml solution, first test): 18.2 mg/kg | Mouse LD50 (KM mice; [10]): 52.3 mg/kg | Mouse LD50 (KM mice; 3 mg/ml solution, first test): 63.4 mg/kg | Mouse LD50 (KM mice; [11]): 55.4 mg/kg | Mouse LD50 (KM mice; 6 mg/ml solution, first test): 49.7 mg/kg | Sampling time/dissociation percent (%) 5 s ([1]; sampling time 5 s): 64.1% | Sampling time/dissociation percent (%) 15 s ([1]; sampling time 15 s): 70.2% | Sampling time/dissociation percent (%) 30 s ([1]; sampling time 30 s): 86.7% | TI Rat (SD rats; 3 mg/ml solution): 3.0 | TI Rat (SD rats; 6 mg/ml solution): 3.7 | Rat ED50 (SD rats; 3 mg/ml solution): 14.6 mg/kg | Rat ED50 (SD rats; 6 mg/ml solution): 11.3 mg/kg | Rat LD50 (SD rats; 3 mg/ml solution): 44.1 mg/kg | Rat LD50 (SD rats; 6 mg/ml solution): 42.3 mg/kg | TI index ([2]; TI=LD50/ED50): 2.8 | LD50 ([2]; injection via ear vein, death): 34.4 (32.1-36.5) mg/kg | ED50 ([2]; injection via ear vein, disappearance of righting reflex): 12.2 (10.6-14.6) mg/kg | Sampling time/dissociation percent (%) 15 s ([3]; sampling time 15 s): 47.5% | Sampling time/dissociation percent (%) 30 s ([3]; sampling time 30 s): 75.5%

CCN(C)CCC(F)C(=O)OC(C(=O)OC1CC2(O)C(OC(=O)c3ccccc3)C3C4(OC(C)=O)COC4CC(O)C3(C)C(=O)C(O)C(=C1C)C2(C)C)C(NC(=O)OC(C)(C)C)c1ccccc1.CS(=O)(=O)O [Compound 23, 2′-O-[4-(N-methyl-N-ethyl)amino-2(R)-fluorobutyryl]docetaxel methanesulfonate]
T/C (%) D20 [4]: −62%

CCN(CC)CCC(F)C(=O)OC(C(=O)OC1CC2(O)C(OC(=O)c3ccccc3)C3C4(OC(C)=O)COC4CC(O)C3(C)C(=O)C(O)C(=C1C)C2(C)C)C(NC(=O)OC(C)(C)C)c1ccccc1.O=C(O)C=CC(=O)O [Compound 24, 2′-O-[4-(N,N-diethyl)amino-2(S)-fluorobutyryl]docetaxel maleate]
T/C (%) D20 [4]: −52% | Tumor inhibitory percent (%) D20 [4]: 120%

CC(=O)O[C@@]12CO[C@@H]1C[C@H](O)[C@@]1(C)C(=O)[C@H](O)C3=C(C)[C@@H](OC(=O)[C@H](OC(=O)[C@H](F)CCN(C)C(C)C)[C@@H](NC(=O)OC(C)(C)C)c4ccccc4)C[C@@](O)([C@@H](OC(=O)c4ccccc4)[C@H]21)C3(C)C.Cl [Compound 25, 2′-O-[4-(N-methyl-N-isopropyl)amino-2(R)-fluorobutyryl]docetaxel hydrochloride]
T/C (%) D20 [4]: −44%

CC(=O)O[C@@]12CO[C@@H]1C[C@H](O)[C@@]1(C)C(=O)[C@H](O)C3=C(C)[C@@H](OC(=O)[C@H](OC(=O)[C@@H](CCN(C)C)C(F)(F)F)[C@@H](NC(=O)OC(C)(C)C)c4ccccc4)C[C@@](O)([C@@H](OC(=O)c4ccccc4)[C@H]21)C3(C)C.CS(=O)(=O)O [Compound 26, 2′-O-[4-(N,N-dimethyl)amino-2(R)-2-trifluoromethylbutyryl] docetaxel methanesulfonate]
T/C (%) D20 [4]: −46%

CC(=O)O[C@@]12CO[C@@H]1C[C@H](O)[C@@]1(C)C(=O)[C@H](O)C3=C(C)[C@@H](OC(=O)[C@H](OC(=O)C(CCN(C)C)C(F)F)[C@@H](NC(=O)OC(C)(C)C)c4ccccc4)C[C@@](O)([C@@H](OC(=O)c4ccccc4)[C@H]21)C3(C)C.Cl (stereo partly drawn) [Compound 27, 2′-O-[4-(N,N-dimethyl)amino-2(R,S)-2-difluoromethylbutyryl]docetaxel hydrochloride]
T/C (%) D20 [4]: −37% | Tumor inhibitory percent (%) D20 [4]: 85%

CC(=O)O[C@@]12CO[C@@H]1C[C@H](O)[C@@]1(C)C(=O)[C@H](O)C3=C(C)[C@@H](OC(=O)[C@H](OC(=O)C(F)CCCN(C)C)[C@@H](NC(=O)OC(C)(C)C)c4ccccc4)C[C@@](O)([C@@H](OC(=O)c4ccccc4)[C@H]21)C3(C)C.CS(=O)(=O)O (stereo partly drawn) [Compound 28, 2′-O-[5-(N,N-dimethyl)amino-2(R,S)-fluorovaleryl]docetaxel methanesulfonate]
Tumor volume (mm^3) (D0) [4]: 118.2 ± 4.8 mm^3 | Weight change (%) D6 [4]: −15.4% | T/C (%) D20 [4]: −28% | Tumor volume (mm^3) (D20) [4]: 41.5 ± 14.7 mm^3 | Tumor inhibitory percent (%) D20 [4]: 64%

CC(=O)O[C@@]12CO[C@@H]1C[C@H](O)[C@@]1(C)C(=O)[C@H](O)C3=C(C)[C@@H](OC(=O)[C@H](OC(=O)[C@@H](F)CCCCN(C)C)[C@@H](NC(=O)OC(C)(C)C)c4ccccc4)C[C@@](O)([C@@H](OC(=O)c4ccccc4)[C@H]21)C3(C)C.O=S(=O)(O)O [Compound 29, 2′-O-[6-(N,N-dimethyl)amino-2(S)-fluorohexanoyl]docetaxel sulfate]
Tumor volume (mm^3) (D0) [4]: 114.7 ± 3.5 mm^3 | Weight change (%) D6 [4]: −15.8% | T/C (%) D20 [4]: −20% | Tumor volume (mm^3) (D20) [4]: 52.4 ± 12.5 mm^3 | Tumor inhibitory percent (%) D20 [4]: 45%

CC(=O)O[C@@]12CO[C@@H]1C[C@H](O)[C@@]1(C)C(=O)[C@H](O)C3=C(C)[C@@H](OC(=O)[C@H](OC(=O)[C@H](F)CCN(C)C)[C@@H](NC(=O)OC(C)(C)C)c4ccccc4)C[C@@](O)([C@@H](OC(=O)c4ccccc4)[C@H]21)C3(C)C.CS(=O)(=O)O [Compound C4, 2′-O-[4-(N,N-dimethyl)amino-2(R)-fluorobutyryl]docetaxel methanesulfonate]
dissociation percent ([5]; 5 min): 81.6% | dissociation percent ([5]; 20 min): 94.8% | dissociation percent ([5]; 60 min): 100% | dissociation percent ([6]; 2 min): 59.2% | dissociation percent ([6]; 5 min): 93.4% | dissociation percent ([6]; 10 min): 100% | T/C (%) D20 [4]: −77%

CC(=O)O[C@@]12CO[C@@H]1C[C@H](O)[C@@]1(C)C(=O)[C@H](O)C3=C(C)[C@@H](OC(=O)[C@H](OC(=O)[C@@H](F)CCN(C)C)[C@@H](NC(=O)OC(C)(C)C)c4ccccc4)C[C@@](O)([C@@H](OC(=O)c4ccccc4)[C@H]21)C3(C)C.CS(=O)(=O)O [Compound C5, 2′-O-[4-(N,N-dimethyl)amino-2(S)-fluorobutyryl]docetaxel methanesulfonate]
dissociation percent ([5]; 5 min): 81.2% | dissociation percent ([5]; 20 min): 93.1% | dissociation percent ([5]; 60 min): 100% | dissociation percent ([6]; 2 min): 58.9% | dissociation percent ([6]; 5 min): 93.3% | dissociation percent ([6]; 10 min): 100% | T/C (%) D20 [4]: −76%

CC(=O)O[C@@]12CO[C@@H]1C[C@H](O)[C@@]1(C)C(=O)[C@H](O)C3=C(C)[C@@H](OC(=O)[C@H](OC(=O)C(F)CCN(C)C)[C@@H](NC(=O)OC(C)(C)C)c4ccccc4)C[C@@](O)([C@@H](OC(=O)c4ccccc4)[C@H]21)C3(C)C.CS(=O)(=O)O (stereo partly drawn) [Compound C6, 2′-O-[4-(N,N-dimethyl)amino-2(R,S)-fluorobutyryl]docetaxel methanesulfonate]
dissociation percent ([5]; 5 min): 76.8% | dissociation percent ([5]; 20 min): 97.8% | dissociation percent ([5]; 60 min): 100% | dissociation percent ([6]; 2 min): 59.1% | dissociation percent ([6]; 5 min): 93.3% | dissociation percent ([6]; 10 min): 100% | T/C (%) D20 [4]: −76%

CO[C@H]1C(=O)[C@]2(C)[C@@H](OC)C[C@H]3OC[C@@]3(OC(C)=O)[C@H]2[C@H](OC(=O)c2ccccc2)[C@]2(O)C[C@H](OC(=O)[C@H](OC(=O)C(F)CCN(C)C)[C@@H](NC(=O)OC(C)(C)C)c3ccccc3)C(C)=C1C2(C)C.CS(=O)(=O)O (stereo partly drawn) [Compound C9, 2′-O-[4-(N,N-dimethyl)amino-2(R,S)-fluorobutyryl] cabazitaxel methanesulfonate]
dissociation percent ([5]; 5 min): 81.2% | dissociation percent ([5]; 20 min): 96.7% | dissociation percent ([5]; 60 min): 100% | dissociation percent ([6]; 2 min): 49.3% | dissociation percent ([6]; 5 min): 88.6% | dissociation percent ([6]; 10 min): 100% | T/C (%) D20 [7]: −66%

From patent US10239851B2 (priority 2014, dated 2019)
